This note sets out measurements from PubChem BioAssay (NCI).

Structures are written as SMILES.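 Growth conditions: 96-well plates. Treatment: test compound, 48 hours, 5 concentrations. Analysis: linear interpolation between bracketing concentrations; unreached endpoints set to highest concentration. TGI denotes the concentration required for complete inhibition of growth.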 Bounds are passed on as bounds.

Test in all cases: NCI tumour cell line growth inhibition, 48 h
Experiment [1] relates to HCT-116 colon.
For experiment [2], the system named is LOX IMVI melanoma.
Experiment [3] concerns MCF7 breast.
Experiment [4] concerns NCI-H23 lung.
Experiment [5] concerns NCI-H522 lung.
In experiment [6] the test system is OVCAR-3 ovarian.
The subject of experiment [7] is SF-295 CNS.
Experiment [8] relates to SW-620 colon.
The subject of experiment [9] is UACC-257 melanoma.
The test system of experiment [10] is M14 melanoma.
The test system of experiment [11] is SR leukemia.

With `CC(C)Cc1ccc(C(C)C(=O)N2CCN(/C=C/c3ccccc3)CC2)cc1` (stereo unspecified), the TGI is 26.3 µM in [1]; 33.1 µM in [2]; 33.7 µM in [3]; 27.1 µM in experiment [4]; 25 µM in [5]; 25.9 µM in experiment [6]. Further, the values for the TGI in experiment [7], in experiment [8] and in experiment [9] were 32.2 µM, 30.3 µM and 31.4 µM, respectively.
Turning to `CC(=O)OC(OC(C)=O)c1ccc2ccc3cccc4ccc1c2c34`, the TGI in [1] is 52.4 µM; in experiment [2], 36 µM; in [10], 61 µM; in [3], 79.1 µM; in experiment [4] it was 45.1 µM; in experiment [6], above 100 µM. The TGI in [7] is 37.5 µM; in experiment [11], above 100 µM; in experiment [9], 34.5 µM.
Turning to `N#Cc1n[nH]n(-c2ccc(Br)cc2)c1=O`, the TGI in [1], in experiment [2], in [10], in [3], in [4] and in experiment [5] was above 100 µM throughout. In addition, the TGI in experiment [6], in experiment [7], in experiment [8] and in [9] was above 100 µM in each case.
Turning to `CCN(CC)CCNc1ccc2nnn3c4ccc(OCCN(CC)CC)cc4c(=O)c1c23`, the TGI in experiment [1], in experiment [10], in [3], in experiment [4], in [5] and in experiment [7] was above 100 µM throughout. Also, the TGI in experiment [11] is 45.4 µM; in [8], above 100 µM; in experiment [9] it was above 100 µM.
Regarding `Cc1ccc(-c2c(C#N)c(-c3ccc(C)cc3)n(NS(=O)(=O)c3ccccc3)c(=O)c2C#N)cc1`, the TGI in experiment [1], in experiment [2], in experiment [10], in experiment [3], in experiment [5] and in experiment [7] was above 100 µM in each case. Further, the TGI in experiment [8] and in experiment [9] was above 100 µM in each case.
Take `CCOC(=O)NC(Nc1ccc(C)cc1)(C(F)(F)F)C(F)(F)F`: the TGI in experiment [1], in [2], in experiment [10], in experiment [3], in experiment [4] and in experiment [5] was above 100 µM in each case. The TGI in experiment [6], in experiment [7] and in experiment [8] was above 100 µM throughout.
For `COc1cc2c(cc1OC)C(CC1=C(c3ccccc3)CN3CCc4cc(OC)c(OC)cc4C3C1)NCC2` (stereo unspecified), the TGI worked out at 33.6 µM in experiment [2]; 46.3 µM in [10]; 52.8 µM in experiment [4]; 34.8 µM in [6]; 31.1 µM in experiment [7]; 34.6 µM in experiment [8]. In experiment [9], the TGI was 34.3 µM.
For `C[C@H]1[C@H]2[C@H]3CC[C@@H]4[C@@]5(C)CC[C@H](O)C(C)(C)[C@@H]5CC[C@@]4(C)[C@]3(C)C[C@H](O)[C@@]2(C)C[C@H]2O[C@]21C`, the TGI in experiment [1] was 36.3 µM; in experiment [2] it was 39.1 µM; in experiment [10] it was 73.6 µM; in [3], 42.3 µM; in experiment [4] it was 40.3 µM; in [5], 48.9 µM. For the same compound, the TGI in [6] is 36.4 µM; in experiment [7], 37.4 µM; in experiment [8] it was 70.1 µM; in [9], 39.4 µM.
For `Cc1ccc2c(c1)C(=S)N1CSCC1c1nncn1-2` (stereo unspecified), the TGI in experiment [1], in experiment [2], in [10], in experiment [3], in experiment [5] and in experiment [6] was above 100 µM throughout. The TGI in experiment [7], in experiment [11], in experiment [8] and in [9] was above 100 µM throughout.
As to `O=C(N/N=C(\c1ccccc1)c1ccccn1)NC1CCCCC1`, the TGI was above 100 µM in [1]; 51.7 µM in experiment [2]; above 100 µM in [10]; above 100 µM in experiment [4]; above 100 µM in [5]; above 100 µM in [6]. Also, the TGI in experiment [7], in experiment [11], in experiment [8] and in experiment [9] was above 100 µM throughout.
On to `CO[C@@]12C[C@@H](C)C3=CCC(C)=C3CC1=C(C)C(=O)O2`, for which the TGI in experiment [1], in [2], in experiment [10], in [4], in experiment [6] and in experiment [7] was above 100 µM each time. Besides, the TGI in experiment [11], in experiment [8] and in experiment [9] was above 100 µM in each case.
As for `CC1(C)[C@@H](Cn2ccc(=O)[nH]c2=O)CC[C@@]1(C)CO`, the TGI in experiment [1], in [2], in experiment [10], in experiment [6], in experiment [7] and in [8] was above 100 µM each time. For the same compound, the TGI in [9] is above 100 µM.
In the case of `COc1cc(Nc2nc3ccccc3nc2C(=O)O)cc(OC)c1OC`, the TGI in [1], in experiment [2], in experiment [10], in [4], in experiment [5] and in experiment [6] was above 100 µM in each case. Moreover, the TGI in experiment [7], in experiment [11], in experiment [8] and in experiment [9] was above 100 µM throughout.
Turning to `CCCC(=O)OCC1OC(n2ccc(N)nc2=O)C(OC(=O)CCC)C1OC(=O)CCC` (stereo unspecified), the TGI in experiment [1], in experiment [2], in [3], in experiment [4], in experiment [5] and in [6] was above 100 µM throughout. Besides, the TGI in experiment [7], in experiment [8] and in experiment [9] was above 100 µM in each case.
